This is an account of results in EP4458352A1, “EICOSAPENTAENOIC ACID ESTER DERIVATIVES FOR THE TREATMENT OF OBESITY” (Technische Universität Dresden, priority 2023, dated 2024).

In test [1] the test system is primary adrenocortical cells. The test can be described thus: Seahorse OCR measurement in primary adrenocortical cells treated with SC-26196. Type of test: cell-based, WT C57BL/6J mice. The conditions noted are these: SC-26196 10 µM, 18 h vs DMSO; n=4. As for the experimental part:
Primary adrenocortical cells were plated in 0.2 % gelatin-precoated XF96 cell culture microplate (Agilent) (8*10^4 cells/well) and treated for 18 h with DMSO or SC-26196 (10 µM). OCR was measured with a Seahorse XF96 Analyzer (Agilent Technologies). The experimental medium used was XF Base Medium supplemented with glucose (10 mM), pyruvate (1 mM) and glutamine (2 mM).

The subject of a further test is NCI-H295R cells. As to the kind of experiment: Lipidomic analysis (LC-MS/MS) of mitochondrial fractions of NCI-H295R cells treated with SC-26196. In kind it is cell-based, Human. The conditions noted are these: SC-26196 10 µM, 18 h vs DMSO. Here is the method:
NCI-H295R cells (obtained from ATCC Cat# CRL-2128) were maintained in DMEM/F12 medium supplemented with 2.5 % Nu-Serum type I (Corning), 1 % Insulin Transferrin Selenium (ITS; Gibco), 50 U/mL penicillin and 50 µg/mL streptomycin. They were treated for 18 h with 10 µM SC-26196 or DMSO. In some experiments, NCI-H295R cells were treated or not for 48 h 66 µM EPA and in the last 24 h they were stimulated or not with forskolin (10 µM; Sigma-Aldrich).
Cells were trypsinized and pelleted by centrifugation (500xg, 5 min, 4 °C). The cells were gently resuspended in homogenization buffer (200 mM mannitol, 50 mM sucrose, 10 mM KCI, […] 25 mM HEPES, pH 7.4, 1 µM aprotinin, 10 µM leupeptin, 20 µM PMSF) and homogenized on ice with 20 strokes of tight Dounce homogenizer. The samples were then centrifuged (800xg, 10 min, 4 °C) to pellet the nuclei. The supernatant was mixed with iodixanol solution (Optiprep, Sigma-Aldrich) to a final concentration of 20 %. The samples were placed at the bottom of a tube and overlaid with 500 µl iodixanol solutions (18 %, 16 %, 14 %, 12 %, 10 %, 5 %) and finally with 500 µl of HBS (50 mM HEPES, 150 mM NaCl, pH 7.4). The samples were centrifuged in Beckman SW60Ti swing-out rotor (45,000 rpm, 5 h, 4 °C). After centrifugation fifteen 280 µl aliquots were collected from top of the tubes.
Fractions 10-12 (SDHB-positive) and 4-5 (HSL-positive) were considered as mitochondrial and lipid droplet fractions, respectively. Protein concentration was measured in the mitochondrial and lipid droplet pools with the BCA Protein Assay Kit (Thermo Fisher) and fractions were analyzed for cholesterol and CE concentrations.
Fractions containing mitochondria were combined and extracted with three volumes of ice-cold chloroform/methanol (10:1, v/v, both containing 0.1 % butylated hydroxytoluene (Merck, ≥99 %)). Samples were incubated on ice for 15 min, before the organic phase was collected after centrifugation (5 min, 5,000 × g). The aqueous phase was re-extracted with two volumes chloroform/methanol as described above. Combined organic phases were dried in vacuo. Methanol (ULC-MS grade, Biosolve B.V.) and chloroform (EMSURE ACS, ISO, Reag. Ph Eur; Supleco) were of highest purity.
Lipid extracts were dissolved in 50 µL 2-propanol (ULC/MS-CC/SFC grade, >99.95 %; Biosolve B.V.) and analyzed by LC-MS/MS. Lipids (2.5 µL loaded in positive mode, 5 µL in negative mode) were separated by reverse phase chromatography (Accucore C30 column; 150 mm × 2.1 mm 2.6 µM 150 Å, Thermo Fisher Scientific) using a Vanquish Horizon UHPLC system (Thermo Fisher Scientific) coupled on-line to a Q Exactive Plus Hybrid Quadrupole Orbitrap mass spectrometer (Thermo Fisher Scientific, Bremen, Germany) equipped with a HESI source. Column was operated at 50 °C and flow rate of 0.3 mL/min. […]

As to `N#CC(CCCN1CCN(/N=C/c2cccnc2)CC1)(c1ccccc1)c1ccccc1` [SC-26196], in test [1], the “oxygen consumption rate (OCR)” value was “decreased”. Besides, in the test on NCI-H295R cells, the “abundance of PC and PE containing PUFA acyl chains in mitochondrial fractions” value was “reduced”; the “lipids with saturated or monounsaturated acyl chains in mitochondrial fractions” value is “increased”. Further, in the test with NCI-H295R cells (n=3), the “mitochondrial lipidome (PCA)” value is recorded as “reprogramed the mitochondrial lipidome”. Also, the “Cardiolipins in mitochondrial fractions” value in the test with NCI-H295R cells (not shown) is “remained unaffected”.
